The source of these data is patent US11446287B2, “Compounds and methods for EP300 or CBP modulation and indications therefor” (Opna Immuno-Oncology SA, priority 2019, dated 2022).

In general, IC50 refers to the concentration that gives 50% inhibition.

SMILES strings stand for the structures.

In the experiment the target is T1, Recombinant human BRD4 containing dual bromodomains (BRD4-BD12 (1-477)) (Homo sapiens, UniProt O60885).
T1 construct: Recombinant human BRD4 containing dual bromodomains (BRD4-BD12 (1-477)); made in house; host or cells: E. coli BL21-CodonPlus (DE3), modified pET vector
The experiment can be described thus: BRD4 Alphascreen binding assay. An outline of the steps:
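His-tagged human BRD4 tandem bromodomains (1-477, E. coli) incubated 1 h at room temperature with biotinylated tetra-acetylated H4 (1-21) peptide and compound in HEPES pH 7.5 buffer with 2 mM DTT. AlphaScreen signal read 30 min after adding beads (7.5 μg/ml); IC50 from four-parameter fit after normalization to controls.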
Background: Alpha assays give light when donor and acceptor beads are brought close together.

For `Cc1nn(CC(C)(C)O)cc1-n1cc(-c2ccc(C(=O)O)cc2OC(F)(F)F)c2cc(-c3c(C)noc3C)cnc21` [P-0365, 4-(5-(3,5-dimethylisoxazol-4-yl)-1-(1-(2-hydroxy-2-methylpropyl)-3-methyl-1H-pyrazol-4-yl)-1H-pyrrolo[2,3-b]pyridin-3-yl)-3-(trifluoromethoxy)benzoic acid], the IC50 is 1 to 8 µM. Next, `Cc1nn(CC(=O)N(C)C)cc1-n1cc(-c2ccc(C(=O)O)cc2OC(F)(F)F)c2cc(-c3c(C)noc3C)cnc21` [P-0366, 4-(1-(1-(2-(dimethylamino)-2-oxoethyl)-3-methyl-1H-pyrazol-4-yl)-5-(3,5-dimethylisoxazol-4-yl)-1H-pyrrolo[2,3-b]pyridin-3-yl)-3-(trifluoromethoxy)benzoic acid]: 8 to 1000 µM. Next, `Cc1cc(C(=O)O)cc(OCC(F)F)c1-c1cn(C2CCOCC2)c2ncc(-c3c(C)noc3C)cc12` [P-0367, 3-(2,2-difluoroethoxy)-4-(5-(3,5-dimethylisoxazol-4-yl)-1-(tetrahydro-2H-pyran-4-yl)-1H-pyrrolo[2,3-b]pyridin-3-yl)-5-methylbenzoic acid]: 1 to 8 µM; `COc1nc(C(=O)O)ccc1-c1cn(C2CCOCC2)c2ncc(-c3c(C)noc3C)cc12` [P-0368, 5-(5-(3,5-dimethylisoxazol-4-yl)-1-(tetrahydro-2H-pyran-4-yl)-1H-pyrrolo[2,3-b]pyridin-3-yl)-6-methoxypicolinic acid]: 8 to 1000 µM. Next, `Cc1noc(C)c1-c1cnc2c(c1)c(-c1c(F)cc(C(=O)O)cc1OC(C)C)cn2C(C1CC1)C1CC1` [P-0369, 4-(1-(dicyclopropylmethyl)-5-(3,5-dimethylisoxazol-4-yl)-1H-pyrrolo[2,3-b]pyridin-3-yl)-3-fluoro-5-isopropoxybenzoic acid]: 1 to 8 µM; `CCOc1cc(C(=O)O)cc(Cl)c1-c1cn(C(C2CC2)C2CC2)c2ncc(-c3c(C)noc3C)cc12` [P-0370, 3-chloro-4-(1-(dicyclopropylmethyl)-5-(3,5-dimethylisoxazol-4-yl)-1H-pyrrolo[2,3-b]pyridin-3-yl)-5-ethoxybenzoic acid]: 1 to 8 µM; `CCOc1cc(C(=O)O)cc(Cl)c1-c1cn(C2CCOCC2)c2ncc(-c3c(C)noc3C)cc12` [P-0371, 3-chloro-4-(5-(3,5-dimethylisoxazol-4-yl)-1-(tetrahydro-2H-pyran-4-yl)-1H-pyrrolo[2,3-b]pyridin-3-yl)-5-ethoxybenzoic acid]: 1 to 8 µM.

Regarding `Cc1noc(C)c1-c1cnc2c(c1)c(-c1c(Cl)cc(C(=O)O)cc1OC(C)C)cn2C1CCOCC1` [P-0372, 3-chloro-4-(5-(3,5-dimethylisoxazol-4-yl)-1-(tetrahydro-2H-pyran-4-yl)-1H-pyrrolo[2,3-b]pyridin-3-yl)-5-isopropoxybenzoic acid], the IC50 was in the range of 1 to 8 µM. Under `CCOc1cc(C(=O)O)nc(OCC)c1-c1cn(C2CCOCC2)c2ncc(-c3c(C)noc3C)cc12` [P-0373, 5-(5-(3,5-dimethylisoxazol-4-yl)-1-(tetrahydro-2H-pyran-4-yl)-1H-pyrrolo[2,3-b]pyridin-3-yl)-4,6-diethoxypicolinic acid] stands 8 to 1000 µM; under `CCOc1cc(C(=O)O)c(F)c(OCC)c1-c1cn(C2CCOCC2)c2ncc(-c3c(C)noc3C)cc12` [P-0374, 4-(5-(3,5-dimethylisoxazol-4-yl)-1-(tetrahydro-2H-pyran-4-yl)-1H-pyrrolo[2,3-b]pyridin-3-yl)-3,5-diethoxy-2-fluorobenzoic acid], 8 to 1000 µM.

On to `CCOc1cc(C(=O)O)c(F)cc1-c1cn(C2CCOCC2)c2ncc(-c3c(C)noc3C)cc12` [P-0375, 4-(5-(3,5-dimethylisoxazol-4-yl)-1-(tetrahydro-2H-pyran-4-yl)-1H-pyrrolo[2,3-b]pyridin-3-yl)-5-ethoxy-2-fluorobenzoic acid], for which the IC50 is 8 to 1000 µM. For `CCOc1nc(C(=O)O)ccc1-c1cn(C2CCOCC2)c2ncc(-c3c(C)noc3C)cc12` [P-0376, 5-(5-(3,5-dimethylisoxazol-4-yl)-1-(tetrahydro-2H-pyran-4-yl)-1H-pyrrolo[2,3-b]pyridin-3-yl)-6-ethoxypicolinic acid], the IC50 fell in the range of 8 to 1000 µM.

On to `CCOc1cc(C(=O)O)c(F)cc1-c1cn(-c2ccccc2F)c2ncc(-c3c(C)noc3C)cc12` [P-0377, 4-(5-(3,5-dimethylisoxazol-4-yl)-1-(2-fluorophenyl)-1H-pyrrolo[2,3-b]pyridin-3-yl)-5-ethoxy-2-fluorobenzoic acid], for which the IC50 was 1 to 8 µM. Under `Cc1noc(C)c1-c1cnc2c(c1)c(-c1ccc(C(=O)O)cc1OC(F)(F)F)cn2C1CCC1` [P-0378, 4-(1-cyclobutyl-5-(3,5-dimethylisoxazol-4-yl)-1H-pyrrolo[2,3-b]pyridin-3-yl)-3-(trifluoromethoxy)benzoic acid] stands 0.0001 to 1 µM; under `Cc1noc(C)c1-c1cnc2c(c1)c(-c1ccc(C(=O)O)cc1OC1CC1)cn2C1CCOCC1` [P-0379, 3-cyclopropoxy-4-(5-(3,5-dimethylisoxazol-4-yl)-1-(tetrahydro-2H-pyran-4-yl)-1H-pyrrolo[2,3-b]pyridin-3-yl)benzoic acid], 8 to 1000 µM; under `Cc1noc(C)c1-c1cnc2c(c1)c(-c1c(Cl)cc(C(=O)O)cc1OC(F)(F)F)cn2C(C1CCC1)C1CCC1` [P-0380, 3-chloro-4-(1-(dicyclobutylmethyl)-5-(3,5-dimethylisoxazol-4-yl)-1H-pyrrolo[2,3-b]pyridin-3-yl)-5-(trifluoromethoxy)benzoic acid], 8 to 1000 µM. Turning to `Cc1noc(C)c1-c1cnc2c(c1)c(-c1c(Cl)cc(C(=O)O)cc1OC1CC1)cn2C1CCOCC1` [P-0381, 3-chloro-5-cyclopropoxy-4-(5-(3,5-dimethylisoxazol-4-yl)-1-(tetrahydro-2H-pyran-4-yl)-1H-pyrrolo[2,3-b]pyridin-3-yl)benzoic acid], the half-maximal inhibitory concentration (IC50) was in the range of 1 to 8 µM. Turning to `Cc1noc(C)c1-c1cnc2c(c1)c(-c1ccc(C(=O)O)cc1OC(F)(F)F)cn2C1CCCC1` [P-0382, 4-(1-cyclopentyl-5-(3,5-dimethylisoxazol-4-yl)-1H-pyrrolo[2,3-b]pyridin-3-yl)-3-(trifluoromethoxy)benzoic acid], the IC50 was in the range of 1 to 8 µM. On to `Cc1noc(C)c1-c1cnc2c(c1)c(-c1ccc(C(=O)O)cc1OC(F)(F)F)cn2C1(C)CCOC1` (centres unmarked) [P-0383, 4-(5-(3,5-dimethylisoxazol-4-yl)-1-(3-methyltetrahydrofuran-3-yl)-1H-pyrrolo[2,3-b]pyridin-3-yl)-3-(trifluoromethoxy)benzoic acid], for which the IC50 fell in the range of 8 to 1000 µM. Next, `Cc1noc(C)c1-c1cnc2c(c1)c(-c1ccc(C(=O)O)cc1OC(F)(F)F)cn2-c1cnc(C2CC2)nc1` [P-0384, 4-(1-(2-cyclopropylpyrimidin-5-yl)-5-(3,5-dimethylisoxazol-4-yl)-1H-pyrrolo[2,3-b]pyridin-3-yl)-3-(trifluoromethoxy)benzoic acid]: 1 to 8 µM; `Cc1noc(C)c1-c1cnc2c(c1)c(-c1ccc(C(=O)O)cc1OC(F)(F)F)cn2C1(C)CCOCC1` [P-0385, 4-(5-(3,5-dimethylisoxazol-4-yl)-1-(4-methyltetrahydro-2H-pyran-4-yl)-1H-pyrrolo[2,3-b]pyridin-3-yl)-3-(trifluoromethoxy)benzoic acid]: 8 to 1000 µM. For `Cc1noc(C)c1-c1cnc2c(c1)c(-c1c(Cl)cc(C(=O)O)cc1OC(F)(F)F)cn2-c1cnc(C2CC2)nc1` [P-0386, 3-chloro-4-(1-(2-cyclopropylpyrimidin-5-yl)-5-(3,5-dimethylisoxazol-4-yl)-1H-pyrrolo[2,3-b]pyridin-3-yl)-5-(trifluoromethoxy)benzoic acid], the IC50 fell in the range of 1 to 8 µM.

Consider `Cc1noc(C)c1-c1cnc2c(c1)c(-c1ccc(C(=O)O)cc1OCC(F)F)cn2-c1cnc(C2CC2)nc1` [P-0387, 4-(1-(2-cyclopropylpyrimidin-5-yl)-5-(3,5-dimethylisoxazol-4-yl)-1H-pyrrolo[2,3-b]pyridin-3-yl)-3-(2,2-difluoroethoxy)benzoic acid], for which the IC50 lay within 8 to 1000 µM.
